Experimental data reported in US20230172930A1, “USE OF COMPLEMENT FACTOR D INHIBITORS ALONE OR IN COMBINATION WITH ANTI-C5 ANTIBODIES FOR TREATMENT OF PAROXYSMAL NOCTURNAL HEMOGLOBINURIA” (Alexion Pharmaceuticals, Inc., priority 2020, published 2023).

Tested on: PNH patients with an inadequate response to eculizumab
Assay: Phase 2 open-label study of danicopan added to eculizumab: laboratory markers of PNH (Hgb, LDH, reticulocytes, bilirubin)
Type: in vivo, human
Conditions: for Direct bilirubin, mean / LDH, mean / Reticulocytes, mean / Total bilirubin, mean: all patients N=11
Protocol: All doses were taken approximately 15-30 minutes after completion of a meal or snack. Dose escalations, to a maximum of 200 mg three times a day, were based on safety and hemoglobin values and permitted at 4-week intervals through week 12 at 50 mg increments. If the patient had not already reached the 200 mg three times daily maximal dose by week 12, escalation was permitted if clinically indicated. […] Patients completing treatment with clinical benefit entered a long-term extension phase.
Descriptive statistics are provided for biochemical, quality-of-life measurements, and transfusion data. Continuous variables are summarized with mean, median, minimum and maximum values. Categorical variables, e.g., transfusion-independent, are summarized with counts and percentages. Missing values were not imputed.

[1] = Patient A, Baseline, before danicopan, on eculizumab 900 mg q14d
[2] = Patient A, Week 12, danicopan 150 mg TID + eculizumab 900 mg q14d
[3] = Patient A, Week 24, danicopan 150 mg TID + eculizumab 900 mg q14d
[4] = Patient B, Baseline, before danicopan, on eculizumab 1200 mg q14d
[5] = Patient B, Week 12, danicopan 100 mg TID + eculizumab 900 mg q14d
[6] = Patient B, Week 24, danicopan 100 mg TID + eculizumab 900 mg q14d
[7] = Patient C, Baseline, before danicopan, on eculizumab 900 mg q14d
[8] = Patient C, Week 12, danicopan 150 mg TID + eculizumab 900 mg q14d
[9] = Patient C, Week 24, danicopan 150 mg TID + eculizumab 900 mg q14d
[10] = Patient D, Baseline, before danicopan, on eculizumab 900 mg q14d
[11] = Patient D, Week 12, danicopan 150 mg TID + eculizumab 900 mg q14d
[12] = Patient D, Week 24, danicopan 150 mg TID + eculizumab 900 mg q14d
[13] = Patient E, Baseline, before danicopan, on eculizumab 1200 mg q14d
[14] = Patient E, Week 12, danicopan 150 mg TID + eculizumab 1200 mg q14d
[15] = Patient E, Week 24, danicopan 150 mg TID + eculizumab 1200 mg q14d
[16] = Patient F, Baseline, before danicopan, on eculizumab 900 mg q14d
[17] = Patient F, Week 12, danicopan 150 mg TID + eculizumab 900 mg q14d
[18] = Patient F, Week 24, danicopan 150 mg TID + eculizumab 900 mg q14d
[19] = Patient G, Baseline, before danicopan, on eculizumab 1500 mg q14d
[20] = Patient G, Week 12, danicopan 100 mg TID + eculizumab 1500 mg q14d
[21] = Patient G, Week 24, danicopan 100 mg TID + eculizumab 1500 mg q14d
[22] = Patient H, Baseline, before danicopan, on eculizumab 900 mg q14d
[23] = Patient H, Week 12, danicopan 200 mg TID + eculizumab 900 mg q14d
[24] = Patient H, Week 24, danicopan 200 mg TID + eculizumab 900 mg q14d
[25] = Patient I, Baseline, before danicopan, on eculizumab 900 mg q14d
[26] = Patient I, Week 12, danicopan 100 mg TID + eculizumab 900 mg q14d
[27] = Patient I, Week 24, danicopan 200 mg TID + eculizumab 900 mg q14d
[28] = Patient J, Baseline, before danicopan, on eculizumab 1200 mg q14d
[29] = Patient J, Week 12, danicopan 100 mg TID + eculizumab 1200 mg q14d
[30] = Patient J, Week 24, danicopan 200 mg TID + eculizumab 1200 mg q14d
[31] = Patient K, Baseline, before danicopan, on eculizumab 900 mg q14d
[32] = Patient K, Week 12, danicopan 100 mg TID + eculizumab 900 mg q14d
[33] = Patient K, Week 24, danicopan 150 mg TID + eculizumab 900 mg q14d
[34] = Baseline, before danicopan, on eculizumab
[35] = Week 24, danicopan 100-200 mg TID + eculizumab

Which results are given for `CC(=O)c1nn(CC(=O)N2C[C@H](F)C[C@H]2C(=O)Nc2cccc(Br)n2)c2ccc(-c3cnc(C)nc3)cc12` [Danicopan, danicopan]?
Direct bilirubin [1]: 0.44 mg/dL; Hgb [1]: 5.00 g/dL; LDH [1]: 1.7 ×ULN; Reticulocytes [1]: 159 10^9/μL; Total bilirubin [1]: 2.14 mg/dL; Direct bilirubin [2]: 0.33 mg/dL; Hgb [2]: 7.70 g/dL; LDH [2]: 1.2 ×ULN; Reticulocytes [2]: 121 10^9/μL; Total bilirubin [2]: 1.80 mg/dL; Direct bilirubin [3]: 0.48 mg/dL; Hgb [3]: 8.50 g/dL; LDH [3]: 1.1 ×ULN; Reticulocytes [3]: 112 10^9/μL; Total bilirubin [3]: 2.40 mg/dL; Direct bilirubin [4]: 0.29 mg/dL; Hgb [4]: 9.80 g/dL; LDH [4]: 1.0 ×ULN; Reticulocytes [4]: 250 10^9/μL; Total bilirubin [4]: 1.24 mg/dL; Direct bilirubin [5]: 0.18 mg/dL; Hgb [5]: 11.8 g/dL; LDH [5]: 0.8 ×ULN; Reticulocytes [5]: 123 10^9/μL; Total bilirubin [5]: 0.89 mg/dL; Direct bilirubin [6]: 0.20 mg/dL; Hgb [6]: 13.3 g/dL; LDH [6]: 0.9 ×ULN; Reticulocytes [6]: 162 10^9/μL; Total bilirubin [6]: 0.81 mg/dL; Direct bilirubin [7]: 0.24 mg/dL; Hgb [7]: 7.60 g/dL; LDH [7]: 0.8 ×ULN; Reticulocytes [7]: 141 10^9/μL; Total bilirubin [7]: 1.03 mg/dL; Direct bilirubin [8]: 0.16 mg/dL; Hgb [8]: 9.00 g/dL; LDH [8]: 0.9 ×ULN; Reticulocytes [8]: 97.0 10^9/μL; Total bilirubin [8]: 0.580 mg/dL; Direct bilirubin [9]: 0.16 mg/dL; Hgb [9]: 9.70 g/dL; LDH [9]: 0.9 ×ULN; Reticulocytes [9]: 87.0 10^9/μL; Total bilirubin [9]: 0.580 mg/dL; Direct bilirubin [10]: 0.43 mg/dL; Hgb [10]: 10.4 g/dL; LDH [10]: 1.1 ×ULN; Reticulocytes [10]: 191 10^9/μL; Total bilirubin [10]: 2.26 mg/dL; Direct bilirubin [11]: 0.15 mg/dL; Hgb [11]: 11.7 g/dL; LDH [11]: 1.2 ×ULN; Reticulocytes [11]: 56.0 10^9/μL; Total bilirubin [11]: 0.700 mg/dL; Direct bilirubin [12]: 0.17 mg/dL; Hgb [12]: 11.5 g/dL; LDH [12]: 0.9 ×ULN; Reticulocytes [12]: 56.0 10^9/μL; Total bilirubin [12]: 0.650 mg/dL; Direct bilirubin [13]: 0.72 mg/dL; Hgb [13]: 8.60 g/dL; LDH [13]: 1.2 ×ULN; Reticulocytes [13]: 120 10^9/μL; Total bilirubin [13]: 2.35 mg/dL; Direct bilirubin [14]: 0.40 mg/dL; Hgb [14]: 7.60 g/dL; LDH [14]: 1.3 ×ULN; Reticulocytes [14]: 179 10^9/μL; Total bilirubin [14]: 2.22 mg/dL; Direct bilirubin [15]: 0.60 mg/dL; Hgb [15]: 9.40 g/dL; LDH [15]: 1.2 ×ULN; Reticulocytes [15]: 90.0 10^9/μL; Total bilirubin [15]: 1.75 mg/dL; Direct bilirubin [16]: 0.82 mg/dL; Hgb [16]: 7.20 g/dL; LDH [16]: 0.9 ×ULN; Reticulocytes [16]: 405 10^9/μL; Total bilirubin [16]: 3.93 mg/dL; Direct bilirubin [17]: 0.49 mg/dL; Hgb [17]: 9.30 g/dL; LDH [17]: 0.9 ×ULN; Reticulocytes [17]: 243 10^9/μL; Total bilirubin [17]: 1.50 mg/dL; Direct bilirubin [18]: 0.78 mg/dL; Hgb [18]: 10.6 g/dL; LDH [18]: 0.9 ×ULN; Reticulocytes [18]: 253 10^9/μL; Total bilirubin [18]: 2.95 mg/dL; Direct bilirubin [19]: 0.39 mg/dL; Hgb [19]: 7.10 g/dL; LDH [19]: 0.6 ×ULN; Reticulocytes [19]: 262 10^9/μL; Total bilirubin [19]: 1.20 mg/dL; Direct bilirubin [20]: 0.50 mg/dL; Hgb [20]: 9.40 g/dL; LDH [20]: 0.5 ×ULN; Reticulocytes [20]: 200 10^9/μL; Total bilirubin [20]: 1.90 mg/dL; Direct bilirubin [21]: 0.39 mg/dL; Hgb [21]: 9.10 g/dL; LDH [21]: 0.9 ×ULN; Reticulocytes [21]: 239 10^9/μL; Total bilirubin [21]: 1.25 mg/dL; Direct bilirubin [22]: 0.78 mg/dL; Hgb [22]: 7.70 g/dL; LDH [22]: 1.5 ×ULN; Reticulocytes [22]: 238 10^9/μL; Total bilirubin [22]: 2.18 mg/dL; Direct bilirubin [23]: 0.53 mg/dL; Hgb [23]: 7.30 g/dL; LDH [23]: 1.8 ×ULN; Reticulocytes [23]: 206 10^9/μL; Total bilirubin [23]: 2.04 mg/dL; Direct bilirubin [24]: 0.52 mg/dL; Hgb [24]: 7.50 g/dL; LDH [24]: 1.4 ×ULN; Reticulocytes [24]: 169 10^9/μL; Total bilirubin [24]: 1.57 mg/dL; Direct bilirubin [25]: 0.23 mg/dL; Hgb [25]: 7.70 g/dL; LDH [25]: 0.9 ×ULN; Reticulocytes [25]: 200 10^9/μL; Total bilirubin [25]: 0.56 mg/dL; Direct bilirubin [26]: 0.18 mg/dL; Hgb [26]: 10.8 g/dL; LDH [26]: 0.9 ×ULN; Reticulocytes [26]: 110 10^9/μL; Total bilirubin [26]: 0.34 mg/dL; Direct bilirubin [27]: 0.18 mg/dL; Hgb [27]: 11.5 g/dL; LDH [27]: 0.9 ×ULN; Reticulocytes [27]: 96 10^9/μL; Total bilirubin [27]: 0.32 mg/dL; Direct bilirubin [28]: 0.68 mg/dL; Hgb [28]: 7.80 g/dL; LDH [28]: 1.3 ×ULN; Reticulocytes [28]: 258 10^9/μL; Total bilirubin [28]: 3.24 mg/dL; Hgb [29]: 10.2 g/dL; Reticulocytes [29]: 292 10^9/μL; Direct bilirubin [30]: 0.23 mg/dL; Hgb [30]: 11.0 g/dL; LDH [30]: 1.2 ×ULN; Reticulocytes [30]: 152 10^9/μL; Total bilirubin [30]: 1.14 mg/dL; Direct bilirubin [31]: 0.64 mg/dL; Hgb [31]: 8.40 g/dL; LDH [31]: 0.9 ×ULN; Reticulocytes [31]: 188 10^9/μL; Total bilirubin [31]: 3.76 mg/dL; Direct bilirubin [32]: 0.39 mg/dL; Hgb [32]: 9.40 g/dL; LDH [32]: 1.2 ×ULN; Reticulocytes [32]: 88.0 10^9/μL; Total bilirubin [32]: 1.85 mg/dL; Direct bilirubin [33]: 0.31 mg/dL; Hgb [33]: 11.5 g/dL; LDH [33]: 1.1 ×ULN; Reticulocytes [33]: 69.0 10^9/μL; Total bilirubin [33]: 1.41 mg/dL; raise in hemoglobin (addition of danicopan to eculizumab in patients that continued to be anemic): over 2 g/dL; Direct bilirubin, mean [34]: 0.51 mg/dL; LDH, mean [34]: 1.06 ×ULN; Reticulocytes, mean [34]: 219 10^9/μL; Total bilirubin, mean [34]: 2.17 mg/dL; Direct bilirubin, mean [35]: 0.37 mg/dL; LDH, mean [35]: 1.04 ×ULN; Reticulocytes, mean [35]: 135 10^9/μL; Total bilirubin, mean [35]: 1.35 mg/dL; mean increase in Hgb (at 24 Weeks of treatment vs baseline, danicopan added to eculizumab): 2.4 g/dL; mean increase in Hgb (danicopan added to background eculizumab): 2.4 gram; raise in hemoglobin (patient without transfusion history (Patient A), baseline 5 g/dL, at 24-weeks): over 3 g/dL
